Data on 24 compounds can be found in US20200069691A1, “HETEROCYCLIC COMPOUNDS AS HIV PROTEASE INHIBITORS” (Merck Sharp & Dohme Corp., priority 2016, published 2020).

The target in this assay is T1, wild-type HIV-1 protease (Human immunodeficiency virus type 1 group M subtype B, UniProt P04585).
T1 construct: Escherichia coli expressed wild-type HIV-1 protease protein
The assay can be described thus: Assay for Inhibition of Microbial Expressed HIV Protease (peptide substrate cleavage, LC-MS/MS readout). As to conditions: E. coli expressed wild-type HIV-1 protease, mean of at least two independent experiments, read-out: HIV Pr Enzyme HIV1 PR IC50. The format is biochemical. The gist of the method: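 E. coli-expressed wild-type HIV-1 protease ([…]) was preincubated with inhibitor 30 min at room temperature in pH 5.5 acetate buffer (100 mM NaCl, 0.1% BSA). Then 400 μM octapeptide substrate was added and reacted 1 h at 30 °C; inhibition came from LC-MS/MS product peak areas, mean of ≥2 experiments.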

A word on the IC50: it is the midpoint of a concentration-inhibition curve. In the case of `Cc1n[nH]cc1-c1ncc2c(n1)CN(C(=O)c1cc(CN3C(=N)N[C@](CCCC(F)(F)F)(c4ccc(F)cc4)C3=O)ccc1C(F)(F)F)C2` [Compound 27, (5R)-5-(4-fluorophenyl)-2-imino-3-[3-{[2-(3-methyl-1H-pyrazol-4-yl)-5,7-dihydro-6H-pyrrolo[3,4-d]pyrimidin-6-yl]carbonyl}-4-(trifluoromethyl)benzyl]-5-(4,4,4-trifluorobutyl)imidazolidin-4-one], the IC50 stood at 2.88 nM.

For `N=C1NC(c2ccc(F)cc2)(c2ccc(F)cc2)C(=O)N1Cc1ccc(Cl)c(C(=O)N2CCC(F)(F)C2)c1` [Compound 389, 3-{4-chloro-3-[(3,3-difluoropyrrolidin-1-yl)carbonyl]benzyl}-5,5-bis(4-fluorophenyl)-2-iminoimidazolidin-4-one], the IC50 is 98.5 nM.

Regarding `CC(C)CC1(c2ccccc2)NC(=N)N(Cc2ccc(C(F)(F)F)c(C(=O)N3Cc4nccnc4C3)c2)C1=O` (stereo not drawn) [Compound 142, 3-[3-(5,7-dihydro-6H-pyrrolo[3,4-b]pyrazin-6-ylcarbonyl)-4-(trifluoromethyl)benzyl]-2-imino-5-(2-methylpropyl)-5-phenylimidazolidin-4-one], the IC50 is 3.23 nM.

In the case of `CC(C)CC(c1ccc(C(F)(F)F)c(C(=O)N2CCn3c(nnc3C(F)(F)F)C2)c1)N1C(=N)N[C@](C[C@@H]2CCOC2)(c2ccc(F)cc2)C1=O` (stereo partly drawn) [Compound 123, (5R)-5-(4-fluorophenyl)-2-imino-3-{3-methyl-1-[4-(trifluoromethyl)-3-{[3-(trifluoromethyl)-5,6-dihydro-[1,2,4]triazolo[4,3-a]pyrazin-7(8H)-yl]carbonyl}phenyl]butyl}-5-[(3R)-tetrahydrofuran-3-ylmethyl]-imidazolidin-4-one], the IC50 turned out to be 55.7 nM.

Turning to `N=C1N[C@](CCCC(F)(F)F)(c2ccc(F)cc2)C(=O)N1Cc1ccc(C(F)(F)F)c(C(=O)N2Cc3cnc(-c4cnn(-c5ccccc5)c4)nc3C2)c1` [Compound 72, (5R)-5-(4-fluorophenyl)-2-imino-3-[3-{[2-(1-phenyl-1H-pyrazol-4-yl)-5,7-dihydro-6H-pyrrolo[3,4-d]pyrimidin-6-yl]carbonyl}-4-(trifluoromethyl)benzyl]-5-(4,4,4-trifluorobutyl)imidazolidin-4-one], the IC50 came out at 9.2 nM.

For the compound `CC1c2ccccc2CN1C(=O)c1cccc(CN2C(=N)NC(c3ccc(F)cc3)(c3ccc(F)cc3)C2=O)c1` (stereo not drawn) [Compound 311, 5,5-bis(4-fluorophenyl)-2-imino-3-{3-[(1-methyl-1,3-dihydro-2H-isoindol-2-yl)carbonyl]benzyl} imidazolidin-4-one], the IC50 turned out to be 51.8 nM.

Take `CCCC1(c2ccccc2)NC(=N)N(Cc2cccc(C(=O)N3Cc4cncnc4C3)c2)C1=O` (stereo not drawn) [Compound 302, 3-[3-(5,7-dihydro-6H-pyrrolo[3,4-d]pyrimidin-6-ylcarbonyl)benzyl]-2-imino-5-phenyl-5-propylimidazolidin-4-one]: the IC50 was 45.4 nM.

For the compound `COC(=O)N1CCN(C(=O)c2cccc(CN3C(=N)NC(CCC(C)C)(c4cccc(F)c4)C3=O)c2)CC1` (stereo not drawn) [Compound 348, methyl 4-[(3-{[4-(3-fluorophenyl)-2-imino-4-(3-methylbutyl)-5-oxoimidazolidin-1-yl]methyl}phenyl)-carbonyl]piperazine-1-carboxylate], the IC50 is 84.1 nM.

Regarding `N=C1NC(c2ccccc2)(c2ccccc2)C(=O)N1Cc1cc(C(=O)N2Cc3nccnc3C2)cs1` [Compound 407, 3-{[4-(5,7-dihydro-6H-pyrrolo[3,4-b]pyrazin-6-ylcarbonyl)thiophen-2-yl]methyl}-2-imino-5,5-diphenylimidazolidin-4-one], the IC50 turned out to be 73.8 nM.

Turning to `COC(=O)N1CCN(C(=O)c2cccc(CN3C(=N)NC(c4ccc(F)cc4)(c4cccc(C(N)=O)c4)C3=O)c2)CC1` (stereo not drawn) [Compound 347, methyl 4-[(3-{[4-(3-carbamoylphenyl)-4-(4-fluorophenyl)-2-imino-5-oxoimidazolidin-1-yl]methyl}phenyl)-carbonyl]piperazine-1-carboxylate], the IC50 stood at 83.3 nM.

With `N=C1N[C@](CCCC(F)(F)F)(c2ccc(F)cc2)C(=O)N1Cc1ccc(C(F)(F)F)c(C(=O)N2Cc3cnc(NCC4CC4)nc3C2)c1` [Compound 74, (5R)-3-[3-({2-[(cyclopropylmethyl)amino]-5,7-dihydro-6H-pyrrolo[3,4-d]pyrimidin-6-yl}carbonyl)-4-(trifluoromethyl)benzyl]-5-(4-fluorophenyl)-2-imino-5-(4,4,4-trifluorobutyl)imidazolidin-4-one], the IC50 was 9.6 nM.

As to `N=C1N[C@](CCCC(F)(F)F)(c2ccc(F)cc2)C(=O)N1Cc1ccc(C(F)(F)F)c(C(=O)N2Cc3cnc(-c4cncnc4)nc3C2)c1` [Compound 49, (5R)-5-(4-fluorophenyl)-2-imino-3-{3-[(2-pyrimidin-5-yl-5,7-dihydro-6H-pyrrolo[3,4-d]pyrimidin-6-yl)carbonyl]-4-(trifluoromethyl)-benzyl}-5-(4,4,4-trifluorobutyl)-imidazolidin-4-one], the IC50 was determined as 5.43 nM.

As for `Cc1nc2c([nH]1)CN(C(=O)c1cccc(CN3C(=N)NC(CCC(C)C)(c4ccccc4)C3=O)c1)C2` (stereo not drawn) [Compound 257, 2-imino-5-(3-methylbutyl)-3-{3-[(2-methyl-4,6-dihydropyrrolo[3,4-d]imidazol-5(1H)-yl)carbonyl]benzyl}-5-phenylimidazolidin-4-one], the IC50 is 21.2 nM.

Take `C[C@H](c1cccc(C(=O)N2Cc3nccnc3C2)c1)N1C(=N)NC(c2ccc(F)cc2)(c2ccc(F)cc2)C1=O` [Compound 186, 3-{(1R)-1-[3-(5,7-dihydro-6H-pyrrolo[3,4-b]pyrazin-6-ylcarbonyl)phenyl]ethyl}-5,5-bis(4-fluorophenyl)-2-iminoimidazolidin-4-one]: the IC50 was determined as 3.24 nM.

In the case of `CC1(C)CN(C(=O)c2cccc(CN3C(=N)NC(c4ccccc4)(c4ccccc4)C3=O)c2)Cc2nnc(C(F)(F)F)n21` [Compound 300, 3-(3-{[5,5-dimethyl-3-(trifluoromethyl)-5,6-dihydro[1,2,4]triazolo[4,3-a]pyrazin-7(8H)-yl]carbonyl}benzyl)-2-imino-5,5-diphenylimidazolidin-4-one], the IC50 was determined as 44 nM.

As to `N=C1NC(c2ccc(F)cc2)(c2ccc(F)cc2)C(=O)N1Cc1cccc(C(=O)N2Cc3ccc(F)cc3C2)c1` [Compound 232, 3-{3-[(5-fluoro-1,3-dihydro-2H-isoindol-2-yl)carbonyl]benzyl}-5,5-bis(4-fluorophenyl)-2-iminoimidazolidin-4-one], the IC50 is 13.5 nM.

With `N=C1N[C@](CCCC(F)(F)F)(c2ccc(F)cc2)C(=O)N1Cc1ccc(C(F)(F)F)c(C(=O)N2Cc3cnc(-c4ccc5ncnn5c4)nc3C2)c1` [Compound 32, (5R)-5-(4-fluorophenyl)-2-imino-3-{3-[(2-[1,2,4]triazolo[1,5-a]pyridin-6-yl-5,7-dihydro-6H-pyrrolo[3,4-d]pyrimidin-6-yl)carbonyl]-4-(trifluoromethyl)benzyl}-5-(4,4,4-trifluorobutyl)imidazolidin-4-one], the IC50 was determined as 3.21 nM.

Consider `N=C1N[C@](CCCC(F)(F)F)(c2ccc(F)cc2)C(=O)N1Cc1ccc(C(F)(F)F)c(C(=O)N2CCn3nc(C4CC4)nc3C2)c1` [Compound 122, (5R)-3-{3-[(2-cyclopropyl-5,6-dihydro[1,2,4]triazolo[1,5-a]pyrazin-7(8H)-yl)carbonyl]-4-(trifluoromethyl)benzyl}-5-(4-fluorophenyl)-2-imino-5-(4,4,4-trifluorobutyl)imidazolidin-4-one], for which the IC50 was 48.1 nM.

For the compound `COC(=O)N1CCN(C(=O)c2cccc(CN3C(=N)NC(CC(C)C)(c4ccc(F)cc4)C3=O)c2)CC1` (stereo not drawn) [Compound 288, methyl 4-[(3-{[4-(4-fluorophenyl)-2-imino-4-(2-methylpropyl)-5-oxoimidazolidin-1-yl]methyl}phenyl)carbonyl] piperazine-1-carboxylate], the IC50 amounted to 35.3 nM.

On to `N=C1N[C@](CCCC(F)(F)F)(c2ccc(F)cc2)C(=O)N1Cc1ccc(C(F)(F)F)c(C(=O)N2CCN(c3ccccn3)CC2)c1` [Compound 99, (5R)-5-(4-fluorophenyl)-2-imino-3-{3-[(4-pyridin-2-ylpiperazin-1-yl)carbonyl]-4-(trifluoromethyl)-benzyl}-5-(4,4,4-trifluorobutyl)-imidazolidin-4-one], for which the IC50 was found to be 21.4 nM.

Regarding `N#CCc1ccc(-c2ncc3c(n2)CN(C(=O)c2cc(CN4C(=N)N[C@](CCCC(F)(F)F)(c5ccc(F)cc5)C4=O)ccc2C(F)(F)F)C3)cn1` [Compound 61, [5-(6-{[5-{[(4R)-4-(4-fluorophenyl)-2-imino-5-oxo-4-(4,4,4-trifluorobutyl)imidazolidin-1-yl]methyl}-2-(trifluoromethyl)-phenyl]carbonyl}-6,7-dihydro-5H-pyrrolo[3,4-d]pyrimidin-2-yl)pyridin-2-yl]acetonitrile], the IC50 was 6.6 nM.

On to `CC(C)CC[C@]1(c2ccccc2)NC(=N)N(C(CC(C)C)c2ccc(C(F)(F)F)c(C(=O)N3Cc4nccnc4C3)c2)C1=O` (stereo partly drawn) [Compound 31, (5R)-3-{1-[3-(5,7-dihydro-6H-pyrrolo[3,4-b]pyrazin-6-ylcarbonyl)-4-(trifluoromethyl)-phenyl]-3-methylbutyl}-2-imino-5-(3-methylbutyl)-5-phenylimidazolidin-4-one], for which the half-maximal inhibitory concentration (IC50) was 3.13 nM.

As for `N#Cc1ncc2c(n1)CN(C(=O)c1cc(CN3C(=N)NC(c4ccccc4)(c4ccccc4)C3=O)ccc1F)C2` [Compound 384, 6-({2-fluoro-5-[(2-imino-5-oxo-4,4-diphenylimidazolidin-1-yl)methyl]phenyl}carbonyl)-6,7-dihydro-5H-pyrrolo[3,4-d]pyrimidine-2-carbonitrile], the IC50 was 21.6 nM.

Take `N=C1NC(c2ccccc2)(c2ccc(Br)cc2)C(=O)N1Cc1cccc(C(=O)N2Cc3ccccc3C2)c1` (stereo not drawn) [Compound 213, 5-(4-bromophenyl)-3-[3-(1,3-dihydro-2H-isoindol-2-ylcarbonyl)benzyl]-2-imino-5-phenylimidazolidin-4-one]: the IC50 came out at 9.77 nM.
